PubChem BioAssay (NCI)
Values joined by “and” are separate entries in the source; they are usually repeats but may differ in a detail not shown here. Equal values may be shown once.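 Dose response: 5 concentrations. Exposure: 48 h. Format: 96-well plates. Endpoint: linear interpolation; highest concentration if not reached. TGI marks complete inhibition of growth.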

Legend:
Test in all cases: NCI anticancer screen, dose series, 48 h
786-0 renal = system: 786-0 renal
CCRF-CEM leukemia = system: CCRF-CEM leukemia
COLO 205 colon = system: COLO 205 colon
HCT-116 colon = system: HCT-116 colon
HOP-62 NSCLC = system: HOP-62 NSCLC
NCI-H460 lung = system: NCI-H460 lung
NCI-H522 lung = system: NCI-H522 lung
OVCAR-5 ovarian = system: OVCAR-5 ovarian
SF-268 CNS = system: SF-268 CNS
SF-295 CNS = system: SF-295 CNS
SK-MEL-28 melanoma = system: SK-MEL-28 melanoma
SNB-75 CNS = system: SNB-75 CNS
SR leukemia = system: SR leukemia
T-47D breast = system: T-47D breast
MDA-N = system: MDA-N

Measured: TGI

CCOC(=O)C1C(=O)CC(C)(O)C(C(=O)OCC)C1c1ccc(N(C)C)cc1 (stereo not drawn)
not listed: MDA-N
> 100 µM: all other assays above

N#CN=Nc1cc(Cl)c(N=NC#N)cc1Cl
92.2 µM: CCRF-CEM leukemia
not listed: 786-0 renal | T-47D breast | MDA-N
> 100 µM: all other assays above

O=C(O)c1ccc(Nc2ccnc3cc(Cl)ccc23)cc1O
not listed: SR leukemia
> 100 µM: all other assays above

COC(=O)[C@H](CCSC)NC(=O)c1ccc(CNC(=O)/C=C/c2cccc(Oc3ccccc3)c2)cc1
34.2 µM: SK-MEL-28 melanoma
50.5 µM: COLO 205 colon
27 µM: T-47D breast
not listed: MDA-N
> 100 µM: all other assays above

O=C(O)C(Cc1ccc(O)cn1)NC(=O)C(F)(F)F (stereo not drawn)
not listed: SNB-75 CNS | T-47D breast
> 100 µM: all other assays above

Cc1ccc(SCC(OCn2cnc3c(N)ncnc32)[C@H](C)F)cc1 (stereo partly drawn)
not listed: MDA-N
> 100 µM: all other assays above

Cc1[nH]c2c(C)ccc(C)c2c1CC(=O)O
62.1 µM: NCI-H522 lung
42.3 µM: CCRF-CEM leukemia
not listed: SNB-75 CNS | SR leukemia
> 100 µM: all other assays above

CC(=O)OCc1nc(C#N)c(N)o1
not listed: SNB-75 CNS | T-47D breast
> 100 µM: all other assays above

CCOC(=O)/C(C#N)=C(/NS(=O)(=O)c1cc(C)c(Cl)cc1[S-])[n+]1ccc(N(C)C)cc1
not listed: SNB-75 CNS | MDA-N
> 100 µM: all other assays above

Cn1c(=O)n(-c2c3ccccc3c(Cl)c3ccccc23)n(C(C)(C)C)c1=O
43.9 µM: SNB-75 CNS
not listed: SR leukemia
> 100 µM: all other assays above

CC(N)Cc1cccc(C(F)(F)F)c1 (stereo not drawn)
not listed: T-47D breast | MDA-N
> 100 µM: all other assays above

CN(CCc1ccc(Br)cc1)CCN1CCCCC1
88 µM: MDA-N
85.4 µM: SNB-75 CNS
32.4 µM: COLO 205 colon
52.1 µM: SK-MEL-28 melanoma
51.7 µM: NCI-H522 lung
36.6 µM: CCRF-CEM leukemia
61.4 µM: SF-295 CNS
not listed: SR leukemia
> 100 µM: all other assays above

Cc1ccc(S(=O)(=O)Nn2c(-c3ccccc3)c(C#N)c(-c3ccc(Cl)cc3)c(C#N)c2=O)cc1
30.9 µM: 786-0 renal
> 100 µM: HOP-62 NSCLC | MDA-N | NCI-H460 lung | OVCAR-5 ovarian | SF-295 CNS
60.4 µM: CCRF-CEM leukemia
65.3 µM: COLO 205 colon
37.3 µM: HCT-116 colon
78.5 µM: SK-MEL-28 melanoma

COC(=O)c1cc(Br)c(C(=O)C(Cl)(Cl)Cl)[nH]1
not listed: SR leukemia
> 100 µM: all other assays above

CCCCCCCCCCCCCCCCOP(=O)(O)OP(=O)(O)OCC1OC(n2ccc(N)nc2=O)CC1O (stereo not drawn)
not listed: SR leukemia
> 100 µM: all other assays above

CCSC(=Nc1ccccc1)SC
not listed: SR leukemia | T-47D breast | MDA-N
> 100 µM: all other assays above

COC(=O)[C@@H]1O[C@]12C(CO[Si](C)(C)C(C)(C)C)OC(n1ccc(=O)[nH]c1=O)C2O[Si](C)(C)C(C)(C)C (stereo partly drawn)
57.7 µM: SF-295 CNS
59 µM: SK-MEL-28 melanoma
48 µM: HOP-62 NSCLC
69.7 µM: COLO 205 colon
77.5 µM: OVCAR-5 ovarian
45.4 µM: NCI-H522 lung
not listed: SR leukemia | T-47D breast
> 100 µM: all other assays above

Cc1cc(S(=O)(=O)Nc2nc(N)n(-c3cnc4ccccc4n3)n2)c(S)cc1Cl
not listed: SF-295 CNS | SR leukemia
> 100 µM: all other assays above

CCOC(=O)c1ccc2c(c1)nc1n2C(c2c(F)cccc2F)SC1 (stereo not drawn)
49.9 µM: T-47D breast
34 µM: HCT-116 colon
28.5 µM: COLO 205 colon
67.8 µM: 786-0 renal
73.7 µM: SF-295 CNS
not listed: NCI-H522 lung | MDA-N
> 100 µM: all other assays above

CC(=O)c1ccc(-c2oc(-c3ccccc3)cc2-c2ccc3c(c2)OCO3)s1
2.99 µM: CCRF-CEM leukemia
not listed: NCI-H522 lung | SK-MEL-28 melanoma | MDA-N
> 100 µM: all other assays above

CN(C(=O)OC(C)(C)C)[C@H]1CCCC[C@H]1N1CCCC1
not listed: NCI-H460 lung | SNB-75 CNS | MDA-N
> 100 µM: all other assays above

CS(=O)(=O)c1nc(N)nc2nc[nH]c12
not listed: SNB-75 CNS | T-47D breast | MDA-N
> 100 µM: all other assays above

O=C(O)C(Cc1cccs1)NC(=O)C(F)(F)F (stereo not drawn)
not listed: 786-0 renal | SR leukemia | T-47D breast | MDA-N
> 100 µM: all other assays above

O=C1CCC(=O)N1CNc1ccc2c(c1)Sc1ccccc1O2
45.7 µM: HCT-116 colon
35.3 µM: COLO 205 colon
58.9 µM: 786-0 renal
53.6 µM: NCI-H522 lung
not listed: NCI-H460 lung | SNB-75 CNS | SR leukemia
> 100 µM: all other assays above

C1COC2SC3=C(SC(=C4SC5=C(SCCS5)S4)S3)SC2O1 (stereo not drawn)
78.3 µM: SR leukemia
not listed: MDA-N
> 100 µM: all other assays above

Cc1nnc(Nc2ccc(Cl)cc2)o1
not listed: OVCAR-5 ovarian | SR leukemia
> 10 µM: all other assays above

CN(C)CCOc1cc2c(c3ccccc13)-c1ccccc1C2=O
2.93 µM: HCT-116 colon
3.24 µM: SF-268 CNS
3.95 µM: HOP-62 NSCLC
10.8 µM: CCRF-CEM leukemia
4.42 µM: SF-295 CNS
7.05 µM: OVCAR-5 ovarian
3.27 µM: SK-MEL-28 melanoma
3.08 µM: NCI-H522 lung
2.34 µM: NCI-H460 lung
4.64 µM: SNB-75 CNS
3.68 µM: COLO 205 colon

C=C(Cl)C(C)(Cl)CCC(Cl)C(C)(C)Cl (stereo not drawn)
61.3 µM: SR leukemia
56.3 µM: NCI-H522 lung
not listed: T-47D breast
> 100 µM: all other assays above

CC1(C)S[C@@H]2[C@H](NC(=O)CCC[C@@H](N)C(=O)O)C(=O)N2[C@H]1C(=O)O
> 28.1 µM: OVCAR-5 ovarian
not listed: 786-0 renal | SR leukemia | T-47D breast | MDA-N
> 50 µM: all other assays above

O=[N+]([O-])C(/C(Cl)=C(/Cl)N1CCCCC1)=C1\NCCO1
not listed: NCI-H522 lung | SR leukemia
> 100 µM: all other assays above

CCC1(O)CC(OC2CC(N(C)C)C(OC3CC(O)C(OC4OC(C)C(=O)C=C4N)C(C)O3)C(C)O2)c2c(O)c3c(c(O)c2C1C(=O)OC)C(=O)c1cccc(O)c1C3=O (stereo not drawn)
0.223 µM: SNB-75 CNS
0.116 µM: COLO 205 colon
0.16 µM and 0.966 µM: OVCAR-5 ovarian
0.17 µM and 0.0205 µM: SK-MEL-28 melanoma
0.0151 µM: NCI-H460 lung
0.133 µM and 0.147 µM: 786-0 renal
> 100 µM: HCT-116 colon
0.203 µM: NCI-H522 lung
0.0761 µM and 0.0126 µM: CCRF-CEM leukemia
0.299 µM: SF-268 CNS
0.855 µM: HOP-62 NSCLC
0.118 µM and 0.012 µM: MDA-N

NC(=S)SCCC(=O)O
not listed: SR leukemia
> 100 µM: all other assays above

CCOC(=O)CSc1nc(-c2ccc(OC)cc2)c(C#N)c(=O)[nH]1
not listed: MDA-N
> 100 µM: all other assays above

CC(=O)O[C@H]1C(=O)[C@@]2(C)C(C(OC(=O)c3ccccc3)[C@]3(O)CC(OC(=O)C(O)C(NC(=O)c4ccccc4)c4ccc(F)cc4)C(C)=C1C3(C)C)[C@]1(OC(C)=O)CO[C@@H]1C[C@@H]2O (stereo partly drawn)
> 7.89 µM: OVCAR-5 ovarian
1.42 µM: SF-295 CNS
0.0755 µM: COLO 205 colon
> 3.82 µM: SR leukemia
0.103 µM: HCT-116 colon
1.34 µM: NCI-H522 lung
not listed: SK-MEL-28 melanoma | MDA-N
> 10 µM: all other assays above
